pIC50: −log10 of the molar value.
Test system: CAL51 cell proliferation
Assay: Cell Titer Glo Proliferation Assay (CAL51)
Assay type: cell-based, human
Details: Homo sapiens, CAL-51; CAL51 cell proliferation, 72 h, Cell Titer Glo luminescence; read-out: Act. Level
In short: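 Viability is measured by CellTiter-Glo luminescence after 72 h of compound exposure. CAL51 cells were seeded in growth medium with 10% FBS and 2 mM glutamine, cultured overnight, then dosed with compound dilutions, vehicle held at 0.2% DMSO.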

Row | SMILES | pIC50
1 | CNC(=O)c1ccc(Nc2nc(OC3CCOCC3)c3c(-c4nnco4)c[nH]c3n2)c(OC)c1 [Example 174, 4-(5-(1,3,4-oxadiazol-2-yl)-4-(tetrahydro-2H-pyran-4-yloxy)-7H-pyrrolo[2,3-d]pyrimidin-2-ylamino)-3-methoxy-N-methylbenzamide] | 6.00 to 6.40
2 | CNC(=O)c1ccc(Nc2nc(OC3CCOCC3)c3c(-c4cccc([C@H](C)O)c4)c[nH]c3n2)c(OC)c1 [Example 175, (S)-4-(5-(3-(1-hydroxyethyl)phenyl)-4-(tetrahydro-2H-pyran-4-yloxy)-7H-pyrrolo[2,3-d]pyrimidin-2-ylamino)-3-methoxy-N-methylbenzamide] | 6.40 to 7.00
3 | Cc1cc(C(=O)N(C)C)ccc1Nc1nc(O[C@H]2CCOC2)c2c(-c3ccncc3)c[nH]c2n1 [Example 176, (S)-N,N,3-trimethyl-4-(5-(pyridin-4-yl)-4-(tetrahydrofuran-3-yloxy)-7H-pyrrolo[2,3-d]pyrimidin-2-ylamino)benzamide] | 6.40 to 7.00
4 | CNC(=O)c1ccc(Nc2nc(OC)c3c(-c4cnn(C)c4)c[nH]c3n2)c(OC)c1 [Example 177, 3-methoxy-4-(4-methoxy-5-(1-methyl-1H-pyrazol-4-yl)-7H-pyrrolo [2,3-d]pyrimidin-2-ylamino)-N-methylbenzamide] | 6.40 to 7.00
5 | CNC(=O)c1ccc(Nc2nc(O[C@H]3CCOC3)c3c(-c4ccnc(C)c4)c[nH]c3n2)c(OC)c1 [Example 178, (S)-3-methoxy-N-methyl-4-(5-(2-methylpyridin-4-yl)-4-(tetrahydrofuran-3-yloxy)-7H-pyrrolo [2,3-d]pyrimidin-2-ylamino) benzamide] | > 7.00
6 | CNC(=O)c1ccc(Nc2nc(OC3COC3)c3c(-c4ccc5nc(C)oc5c4)c[nH]c3n2)c(OC)c1 [Example 179, 3-methoxy-N-methyl-4-(5-(2-methylbenzo[d]oxazol-6-yl)-4-(oxetan-3-yloxy)-7H-pyrrolo[2,3-d]pyrimidin-2-ylamino)benzamide] | > 7.00
7 | CNC(=O)c1ccc(OC)c(Nc2nc(OC(C)C)c3c(-c4ccc5nc(C)oc5c4)c[nH]c3n2)c1 [Example 180, 3-(4-isopropoxy-5-(2-methylbenzo[d]oxazol-6-yl)-7H-pyrrolo[2,3-d]pyrimidin-2-ylamino)-4-methoxy-N-methylbenzamide] | 6.40 to 7.00
8 | CNC(=O)c1ccc(OC)c(Nc2nc(OC3CCOCC3)c3c(-c4ccc5nc(C)oc5c4)c[nH]c3n2)c1 [Example 181, 4-methoxy-N-methyl-3-(5-(2-methylbenzo[d]oxazol-6-yl)-4-(tetrahydro-2H-pyran-4-yloxy)-7H-pyrrolo[2,3-d]pyrimidin-2-ylamino)benzamide] | 6.40 to 7.00
9 | CNC(=O)c1ccc(-c2c[nH]c3nc(Nc4ccc(C(=O)NC)cc4OC)nc(O[C@H]4CCOC4)c23)cc1 [Example 182, (S)-3-methoxy-N-methyl-4-(5-(4-(methylcarbamoyl)phenyl)-4-(tetrahydrofuran-3-yloxy)-7H-pyrrolo[2,3-d]pyrimidin-2-ylamino)benzamide] | > 7.00
10 | CNC(=O)c1ccc(Nc2nc(OC3CCOCC3)c3c(-c4ccc5nc(C)oc5c4)c[nH]c3n2)c(OC)n1 [Example 183, 6-methoxy-N-methyl-5-(5-(2-methylbenzo[d]oxazol-6-yl)-4-(tetrahydro-2H-pyran-4-yloxy)-7H-pyrrolo[2,3-d]pyrimidin-2-yalmino)picolinamide] | 6.40 to 7.00
11 | CNC(=O)c1ccc(Nc2nc(OC3CCOCC3)c3c(-c4cnn(C)c4)c[nH]c3n2)c(OC)c1 [Example 184, 3-methoxy-N-methyl-4-(5-(1-methyl-1H-pyrazol-4-yl)-4-(tetrahydro-2H-pyran-4-yloxy)-7H-pyrrolo[2,3-d]pyrimidin-2-ylamino)benzamide] | > 7.00
12 | CNC(=O)c1ccc(Nc2nc(OC(C)C)c3c(-c4ccnc(OC)c4)c[nH]c3n2)c(OC)c1 [Example 185, 4-(4-isopropoxy-5-(2-methoxypyridin-4-yl)-7H-pyrrolo [2,3-d]pyrimidin-2-ylamino)-3-methoxy-N-methylbenzamide] | > 7.00
13 | CNC(=O)c1ccc(Nc2nc(OC3CCOCC3)c3c(-c4cnccn4)c[nH]c3n2)c(OC)c1 [Example 186, 3-methoxy-N-methyl-4-(5-(pyrazin-2-yl)-4-(tetrahydro-2H-pyran-4-yloxy)-7H-pyrrolo[2,3-d]pyrimidin-2-ylamino) benzamide] | 6.40 to 7.00
14 | CNC(=O)c1ccc(Nc2nc(OC(C)C)c3c(-c4cccc(S(C)(=O)=O)c4)c[nH]c3n2)c(OC)c1 [Example 187, 4-(4-isopropoxy-5-(3-(methylsulfonyl)phenyl)-7H-pyrrolo[2,3-d]pyrimidin-2-ylamino)-3-methoxy-N-methylbenzamide] | 6.40 to 7.00
15 | CNC(=O)c1ccc(-c2c[nH]c3nc(Nc4ccc(C(=O)NC)cc4OC)nc(OC(C)C)c23)cc1 [Example 188, 4-(4-isopropoxy-5-(4-(methylcarbamoyl)phenyl)-7H-pyrrolo[2,3-d]pyrimidin-2-ylamino)-3-methoxy-N-methylbenzamide] | > 7.00
16 | CNC(=O)c1ccc(Nc2nc(OC(C)C)c3c(-c4cnn(C)c4)c[nH]c3n2)c(OC)c1 [Example 189, 4-(4-isopropoxy-5-(1-methyl-1H-pyrazol-4-yl)-7H-pyrrolo[2,3-d]pyrimidin-2-ylamino)-3-methoxy-N-methylbenzamide] | > 7.00
17 | CNC(=O)c1ccc(Nc2nc(OC)c3c(-c4ccncc4)c[nH]c3n2)c(OC)c1 [Example 190, 3-methoxy-4-(4-methoxy-5-(pyridin-4-yl)-7H-pyrrolo[2,3-d]pyrimidin-2-ylamino)-N-methylbenzamide] | > 7.00
18 | CNC(=O)c1ccc(Nc2nc(OC3CCOCC3)c3c(-c4ccc5nc(C)oc5c4)c[nH]c3n2)c(OC(F)(F)F)c1 [Example 192, N-methyl-4-(5-(2-methylbenzo[d]oxazol-6-yl)-4-(tetrahydro-2H-pyran-4-yloxy)-7H-pyrrolo[2,3-d]pyrimidin-2-ylamino)-3-(trifluoromethoxy)benzamide] | 6.40 to 7.00
19 | CNC(=O)c1ccc(Nc2nc(OC(C)C)c3c(-c4ccc(-c5ncc[nH]5)cc4)c[nH]c3n2)c(OC)c1 [Example 193, 4-(5-(4-(1H-imidazol-2-yl)phenyl)-4-isopropoxy-7H-pyrrolo [2,3-d]pyrimidin-2-ylamino)-3-methoxy-N-methylbenzamide] | > 7.00
20 | CNC(=O)c1ccc(Nc2nc(OC(C)C)c3c(-c4ccnc(N)c4)c[nH]c3n2)c(OC)c1 [Example 194, 4-(5-(2-aminopyridin-4-yl)-4-isopropoxy-7H-pyrrolo[2,3-d]pyrimidin-2-ylamino)-3-methoxy-N-methylbenzamide] | > 7.00
21 | CNC(=O)c1ccc(Nc2nc(OC3CCOCC3)c3c(-c4ccc(-c5nccn5C)cc4)c[nH]c3n2)c(OC)c1 [Example 195, 3-methoxy-N-methyl-4-(5-(4-(1-methyl-1H-imidazol-2-yl)phenyl)-4-(tetrahydro-2H-pyran-4-yloxy)-7H-pyrrolo[2,3-d]pyrimidin-2-ylamino)benzamide] | 5.00 to 6.00
22 | CCOc1ccc(-c2c[nH]c3nc(Nc4ccc(C(=O)NC)cc4OC)nc(OC(C)C)c23)cn1 [Example 196, 4-(5-(6-ethoxypyridin-3-yl)-4-isopropoxy-7H-pyrrolo[2,3-d]pyrimidin-2-ylamino)-3-methoxy-N-methylbenzamide] | 6.40 to 7.00
23 | CNC(=O)c1ccc(Nc2nc(OC3CCOCC3)c3c(-c4ccc(-c5nc(C)c(C)[nH]5)cc4)c[nH]c3n2)c(OC)c1 [Example 197, 4-(5-(4-(4,5-dimethyl-1H-imidazol-2-yl)phenyl)-4-(tetrahydro-2H-pyran-4-yloxy)-7H-pyrrolo[2,3-d]pyrimidin-2-ylamino)-3-methoxy-N-methylbenzamide] | 6.40 to 7.00
24 | CNC(=O)c1ccc(Nc2nc(OC3CCC3)c3c(-c4ccc5nc(C)oc5c4)c[nH]c3n2)c(OC)c1 [Example 198, 4-(4-cyclobutoxy-5-(2-methylbenzo[d]oxazol-6-yl)-7H-pyrrolo[2,3-d]pyrimidin-2-ylamino)-3-methoxy-N-methylbenzamide] | > 7.00
25 | CNC(=O)c1ccc(Nc2nc(OC(C)C)c3c(-c4ccnc(NC)c4)c[nH]c3n2)c(OC)c1 [Example 199, 4-(4-isopropoxy-5-(2-(methylamino)pyridin-4-yl)-7H-pyrrolo[2,3-d]pyrimidin-2-ylamino)-3-methoxy-N-methylbenzamide] | > 7.00
26 | CNC(=O)c1ccc(Nc2nc(OC3CCOCC3)c3c(-c4ccncc4)c[nH]c3n2)c(C(C)C)c1 [Example 200, 3-isopropyl-N-methyl-4-(5-(pyridin-4-yl)-4-(tetrahydro-2H-pyran-4-yloxy)-7H-pyrrolo[2,3-d]pyrimidin-2-ylamino) benzamide] | 6.40 to 7.00
27 | CNC(=O)c1ccc(Nc2nc(OC(C)C)c3c(-c4ccnc(C)c4)c[nH]c3n2)c(OC)c1 [Example 201, 4-(4-isopropoxy-5-(2-methyl-pyridin-4-yl)-7H-pyrrolo[2,3-d]pyrimidin-2-ylamino)-3-methoxy-N-methylbenzamide] | > 7.00
28 | CNC(=O)c1ccc(Nc2nc(NC(C)C)c3c(-c4ccc5nc(C)oc5c4)c[nH]c3n2)c(OC)c1 [Example 202, 4-(4-(isopropylamino)-5-(2-methylbenzo[d]oxazol-6-yl)-7H-pyrrolo[2,3-d]pyrimidin-2-ylamino)-3-methoxy-N-methylbenzamide] | > 7.00
29 | CC[C@@H](C)Oc1nc(Nc2ccc(C(=O)NC)cc2OC)nc2[nH]cc(-c3ccc4nc(C)oc4c3)c12 [Example 203, (R)-4-(4-sec-butoxy-5-(2-methylbenzo[d]oxazol-6-yl)-7H-pyrrolo[2,3-d]pyrimidin-2-ylamino)-3-methoxy-N-methylbenzamide] | 6.40 to 7.00
30 | CC[C@H](C)Oc1nc(Nc2ccc(C(=O)NC)cc2OC)nc2[nH]cc(-c3ccc4nc(C)oc4c3)c12 [Example 204, (S)-4-(4-sec-butoxy-5-(2-methylbenzo[d]oxazol-6-yl)-7H-pyrrolo[2,3-d]pyrimidin-2-ylamino)-3-methoxy-N-methylbenzamide] | 6.40 to 7.00

Source: US9346812B2, “Substituted pyrrolopyrimidine compounds, compositions thereof, and methods of treatment therewith” (Signal Pharmaceutical LLC, priority 2013, dated 2016)
